Test results: patent US12427144B2, “Compounds and methods for the targeted degradation of androgen receptor” (Arvinas Operations, Inc., priority 2019, dated 2025)

Target: T1, Androgen Receptor (AR) (Homo sapiens, UniProt P10275)
T1 construct: endogenous in cells; host or cells: VCaP
T1 sequence (P10275 1-920): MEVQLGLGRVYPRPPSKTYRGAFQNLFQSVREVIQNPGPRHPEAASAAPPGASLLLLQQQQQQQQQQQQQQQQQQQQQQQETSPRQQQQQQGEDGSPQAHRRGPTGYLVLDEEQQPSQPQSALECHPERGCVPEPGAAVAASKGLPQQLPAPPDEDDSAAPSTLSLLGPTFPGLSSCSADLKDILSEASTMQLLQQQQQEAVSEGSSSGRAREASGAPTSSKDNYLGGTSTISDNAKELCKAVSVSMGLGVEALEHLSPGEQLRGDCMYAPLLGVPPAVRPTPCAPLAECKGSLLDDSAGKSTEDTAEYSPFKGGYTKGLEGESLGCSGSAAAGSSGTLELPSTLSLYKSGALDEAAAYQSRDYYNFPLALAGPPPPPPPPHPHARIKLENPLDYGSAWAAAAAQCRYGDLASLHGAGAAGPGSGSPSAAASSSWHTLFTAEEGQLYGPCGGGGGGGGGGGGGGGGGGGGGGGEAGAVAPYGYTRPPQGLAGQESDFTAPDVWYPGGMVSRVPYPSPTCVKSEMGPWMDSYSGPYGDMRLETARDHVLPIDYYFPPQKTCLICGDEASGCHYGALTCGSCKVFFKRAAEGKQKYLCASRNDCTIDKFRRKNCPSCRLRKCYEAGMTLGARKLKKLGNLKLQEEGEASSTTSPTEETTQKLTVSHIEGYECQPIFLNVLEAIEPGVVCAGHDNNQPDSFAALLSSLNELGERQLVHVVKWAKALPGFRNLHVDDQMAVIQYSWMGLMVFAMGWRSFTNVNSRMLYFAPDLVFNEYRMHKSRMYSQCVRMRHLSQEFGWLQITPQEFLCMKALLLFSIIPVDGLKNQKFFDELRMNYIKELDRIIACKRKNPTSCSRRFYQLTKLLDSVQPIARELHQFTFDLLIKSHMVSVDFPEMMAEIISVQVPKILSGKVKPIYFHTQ
Experiment: AR immunofluorescence staining, high content imager, VCaP cells
Assay type: cell-based
Conditions: for DC50: AR degradation by immunofluorescence; for Dmax: maximal AR degradation
How it was run: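 VCaP cells treated with compound, fixed in 4% PFA (8% 2× solution added directly for low-adherence lines), permeabilised with 0.1% Triton X-100 and blocked. Stained overnight at 4° C with anti-AR antibody, then FITC anti-rabbit secondary plus phalloidin and DAPI/Hoechst. Read by high-content imaging.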

Row | DC50 [nM] | Dmax [%] | SMILES
1 | < 1 | ≥ 70 | COc1cc(O[C@H]2C(C)(C)[C@H](NC(=O)c3ccc(N4CCO[C@@H](CN5CCN(c6ccc(C(=O)NC7CCC(=O)NC7=O)c(OC)c6)CC5)C4)cc3)C2(C)C)ccc1C#N (stereo partly drawn) [Compound 58, N-(2,6-dioxopiperidin-3-yl)-2-methoxy-4-(4-{[(2S)-4-(4-{[(1r,3r)-3-(4-cyano-3-methoxyphenoxy)-2,2,4,4-tetramethylcyclobutyl]carbamoyl}phenyl)morpholin-2-yl]methyl}piperazin-1-yl)benzamide]
2 | < 1 | ≥ 70 | COc1cc(N2CCN(C[C@H]3CN(c4ccc(C(=O)N[C@H]5C(C)(C)[C@H](Oc6cc(C)c(C#N)c(C)c6)C5(C)C)cc4)CCO3)CC2)ccc1C(=O)NC1CCC(=O)NC1=O (stereo partly drawn) [Compound 59, N-(2,6-dioxopiperidin-3-yl)-2-methoxy-4-(4-{[(2S)-4-(4-{[(1r,3r)-3-(4-cyano-3,5-dimethylphenoxy)-2,2,4,4-tetramethylcyclobutyl]carbamoyl}phenyl)morpholin-2-yl]methyl}piperazin-1-yl)benzamide]
3 | < 1 | ≥ 70 | COc1cc(O[C@H]2C(C)(C)[C@H](NC(=O)c3ccc(N4CCC(CN5CCN(c6ccc(C(=O)NC7CCC(=O)NC7=O)cc6OC)CC5)CC4)cc3)C2(C)C)ccc1C#N (some centres unmarked) [Compound 60, N-(2,6-dioxopiperidin-3-yl)-3-methoxy-4-(4-{[1-(4-{[(1r,3r)-3-(4-cyano-3-methoxyphenoxy)-2,2,4,4-tetramethylcyclobutyl]carbamoyl}phenyl)piperidin-4-yl]methyl}piperazin-1-yl)benzamide]
4 | < 1 | 50 to 70 | Cc1cc(O[C@H]2C(C)(C)[C@H](NC(=O)c3ccc(N4CCOC(CN(C(C)C)[C@H]5C[C@@H](Oc6ccc(F)c(C(=O)N[C@H]7CCC(=O)NC7=O)c6)C5)C4)cc3)C2(C)C)cc(C)c1C#N (stereo partly drawn) [Compound 61, 4-(2-{[(propan-2-yl)[(1r,3r)-3-(3-{[(3S)-2,6-dioxopiperidin-3-yl]carbamoyl}-4-fluorophenoxy)cyclobutyl]amino]methyl}morpholin-4-yl)-N-[(1r,3r)-3-(4-cyano-3,5-dimethylphenoxy)-2,2,4,4-tetramethylcyclobutyl]benzamide]
5 | < 1 | 50 to 70 | COc1cc(O[C@H]2C(C)(C)[C@H](NC(=O)c3ccc(N4CCOC(CN(C(C)C)[C@H]5C[C@@H](Oc6ccc(F)c(C(=O)N[C@H]7CCC(=O)NC7=O)c6)C5)C4)cc3)C2(C)C)ccc1C#N (stereo partly drawn) [Compound 62, 4-(2-{[(propan-2-yl)[(1r,3r)-3-(3-{[(3S)-2,6-dioxopiperidin-3-yl]carbamoyl}-4-fluorophenoxy)cyclobutyl]amino]methyl}morpholin-4-yl)-N-[(1r,3r)-3-(4-cyano-3-methoxyphenoxy)-2,2,4,4-tetramethylcyclobutyl]benzamide]
6 | < 1 | 50 to 70 | Cc1cc(O[C@H]2C(C)(C)[C@H](NC(=O)c3ccc(N4CC5(C4)CN([C@H]4C[C@H](Oc6ccc(C(=O)N[C@H]7CCC(=O)NC7=O)c(F)c6)C4)CCO5)cc3)C2(C)C)cc(C)c1C#N [Compound 63, N-[(1r,3r)-3-(4-cyano-3,5-dimethylphenoxy)-2,2,4,4-tetramethylcyclobutyl]-4-{8-[(1r,3r)-3-(4-{[(3S)-2,6-dioxopiperidin-3-yl]carbamoyl}-3-fluorophenoxy)cyclobutyl]-5-oxa-2,8-diazaspiro[3.5]nonan-2-yl}benzamide]
7 | < 1 | 50 to 70 | Cc1cc(O[C@H]2C(C)(C)[C@H](NC(=O)c3ccc(N4CCC(CN5CCOCCCCOc6cc(C(=O)NC7CCC(=O)NC7=O)ccc6O[C@H]6C[C@H]5C6)CC4)cc3)C2(C)C)cc(C)c1C#N (some centres unmarked) [Compound 64, (1r,18r)-N-(2,6-dioxopiperidin-3-yl)-17-{[1-(4-{[(1r,3r)-3-(4-cyano-3,5-dimethylphenoxy)-2,2,4,4-tetramethylcyclobutyl]carbamoyl}phenyl)piperidin-4-yl]methyl}-2,9,14-trioxa-17-azatricyclo[16.1.1.0^3,8]icosa-3(8),4,6-triene-6-carboxamide]
